Test results: ChEMBL document CHEMBL1201862, “PubChem BioAssay data set” (2004)
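All cell lines were grown in 96-well plates and treated with compound for 48 hours. Here, GI50 denotes the concentration required for 50% inhibition of growth.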 The source made the active and inactive calls. Cut-off read from the data, not from the text of the source: active = GI50 up to about 1.1 µM and inactive = higher.

Columns and labels:
Test in all cases: inhibition of tumour cell growth, NCI panel, 48 h
[1] = tested on: SNB-78
[2] = tested on: XF498
[3] = tested on: DLD-1
[4] = tested on: LXFL 529
[5] = tested on: KM-20L2
[6] = tested on: DMS-273
[7] = tested on: DMS-114
[8] = tested on: RXF 631
[9] = tested on: HOP-18

CCN1CCC(O)(/C=C/c2ccc(Cl)cc2)C(C(=O)/C=C/c2ccc(Cl)cc2)C1 (stereo unspecified)
GI50 [1]: 45.5 µM (inactive)
GI50 [2]: 81.1 µM (inactive)
GI50 [3]: 16.5 µM (inactive)
GI50 [4]: 14.7 µM (inactive)
GI50 [5]: 32.1 µM (inactive)
GI50 [6]: 28.4 µM (inactive)
GI50 [7]: 26.6 µM (inactive)

COc1cc2c(c(OC)c1OC)-c1ccc(OC)c(=O)cc1[C@@H](N(C)C=O)CC2
GI50 [1]: 0.0135 µM (active)
GI50 [2]: 0.112 µM (active)
GI50 [3]: 0.0198 µM (active)
GI50 [8]: 0.0244 µM (active)
GI50 [4]: < 0.0184 µM (active)
GI50 [9]: > 100 µM (inactive)
GI50 [5]: 0.0133 µM (active)
GI50 [6]: 0.0116 µM (active)

CC1(C(=O)O)CCOc2ccccc21 (stereo unspecified)
GI50 [1]: > 100 µM (inactive)
GI50 [3]: > 100 µM (inactive)
GI50 [4]: > 100 µM (inactive)
GI50 [9]: > 100 µM (inactive)
GI50 [5]: > 100 µM (inactive)
GI50 [7]: > 100 µM (inactive)

COc1ccc(NC(=O)C2C(=O)N(c3ccc(OC)cc3)C(=O)/C2=N\N)cc1 (stereo unspecified)
GI50 [1]: > 100 µM (inactive)
GI50 [3]: > 100 µM (inactive)
GI50 [8]: > 100 µM (inactive)
GI50 [4]: > 100 µM (inactive)
GI50 [9]: > 100 µM (inactive)
GI50 [5]: > 100 µM (inactive)
GI50 [7]: > 100 µM (inactive)

COc1cc(OC)c2c(c1)C(=O)C(CC1(C)OCCCO1)=CC2=O
GI50 [1]: 7.96 µM (inactive)
GI50 [2]: 9.48 µM (inactive)
GI50 [3]: 4.17 µM (inactive)
GI50 [8]: 22.3 µM (inactive)
GI50 [4]: 6.12 µM (inactive)
GI50 [9]: 13 µM (inactive)
GI50 [5]: 14.1 µM (inactive)
GI50 [6]: 7.48 µM (inactive)
GI50 [7]: 6.11 µM (inactive)

C[P+]1(c2ccccc2)CCCCC1
GI50 [1]: > 100 µM (inactive)
GI50 [3]: > 100 µM (inactive)
GI50 [8]: > 100 µM (inactive)
GI50 [4]: > 100 µM (inactive)
GI50 [9]: 0.0484 µM (active)
GI50 [5]: > 100 µM (inactive)
GI50 [6]: > 100 µM (inactive)
GI50 [7]: > 100 µM (inactive)

Cl[Si]1(Cl)Oc2ccccc2O[Si](Cl)(Cl)Oc2ccccc2O1
GI50 [2]: 15.2 µM (inactive)
GI50 [3]: 34 µM (inactive)
GI50 [8]: 7.78 µM (inactive)
GI50 [5]: 27.1 µM (inactive)
GI50 [6]: 7.38 µM (inactive)
GI50 [7]: 1.88 µM (inactive)

CCOC(=O)C1(Br)C(c2ccccc2)NC(=O)NC1(C)Br (stereo unspecified)
GI50 [1]: > 100 µM (inactive)
GI50 [2]: 52.2 µM (inactive)
GI50 [3]: 55.7 µM (inactive)
GI50 [8]: 46.6 µM (inactive)
GI50 [4]: 92.5 µM (inactive)
GI50 [9]: > 100 µM (inactive)
GI50 [5]: > 100 µM (inactive)
GI50 [6]: 90.2 µM (inactive)
GI50 [7]: 28.9 µM (inactive)

CSc1ccc(OCC2OC2O)cc1 (stereo unspecified)
GI50 [1]: > 100 µM (inactive)
GI50 [2]: 30.5 µM (inactive)
GI50 [3]: 45.7 µM (inactive)
GI50 [4]: 29 µM (inactive)
GI50 [9]: > 100 µM (inactive)
GI50 [5]: 46.2 µM (inactive)
GI50 [6]: 34.2 µM (inactive)
GI50 [7]: 12.9 µM (inactive)

C=CCC1[C@@H](C(C)(C)C(C(C)=O)C(=O)C(=O)OC)OC(C(C)(C)C)N1C(=O)OC (stereo partly specified)
GI50 [1]: > 100 µM (inactive)
GI50 [2]: > 100 µM (inactive)
GI50 [3]: > 100 µM (inactive)
GI50 [8]: > 100 µM (inactive)
GI50 [9]: > 100 µM (inactive)
GI50 [5]: > 100 µM (inactive)

CC(=O)OCC1=C(CCC#N)N2C(=O)C(NC(=O)Cc3cccs3)C2[S+]([O-])C1 (stereo unspecified)
GI50 [1]: > 100 µM (inactive)
GI50 [2]: > 100 µM (inactive)
GI50 [3]: > 100 µM (inactive)
GI50 [9]: > 100 µM (inactive)
GI50 [5]: > 100 µM (inactive)
GI50 [6]: > 100 µM (inactive)
GI50 [7]: > 100 µM (inactive)

CN(/N=C/c1cccc2cccnc12)c1ccc([N+](=O)[O-])cc1
GI50 [1]: > 100 µM (inactive)
GI50 [2]: > 100 µM (inactive)
GI50 [3]: > 100 µM (inactive)
GI50 [4]: > 100 µM (inactive)
GI50 [9]: > 100 µM (inactive)
GI50 [5]: > 100 µM (inactive)
GI50 [6]: > 100 µM (inactive)
GI50 [7]: > 100 µM (inactive)

CC(C)N(C(=O)C12C3C4C5(C#N)C3C1(C#N)C5C42C#N)C(C)C (stereo unspecified)
GI50 [1]: > 100 µM (inactive)
GI50 [2]: > 100 µM (inactive)
GI50 [3]: > 100 µM (inactive)
GI50 [4]: > 100 µM (inactive)
GI50 [9]: > 100 µM (inactive)
GI50 [5]: > 100 µM (inactive)
GI50 [6]: > 100 µM (inactive)
GI50 [7]: > 100 µM (inactive)

c1ccc2c(c1)N=C(c1ccc3ccccc3c1)CC(c1cccc3ccccc13)S2 (stereo unspecified)
GI50 [2]: 35 µM (inactive)
GI50 [3]: 11.6 µM (inactive)
GI50 [8]: 34.4 µM (inactive)
GI50 [4]: 24.2 µM (inactive)
GI50 [9]: > 100 µM (inactive)
GI50 [5]: 43.5 µM (inactive)
GI50 [6]: 36.1 µM (inactive)
GI50 [7]: 24.3 µM (inactive)

CCC12C=CCN3CC[C@]4(C(=C(C(=O)OC)[C@@H]1Nc1ncnc5c1ncn5C1OC(COC(C)=O)C(OC(C)=O)C1OC(C)=O)Nc1ccccc14)C32 (stereo partly specified)
GI50 [1]: 3.15 µM (inactive)
GI50 [2]: 3 µM (inactive)
GI50 [3]: 2.69 µM (inactive)
GI50 [4]: 2.4 µM (inactive)
GI50 [9]: 7.64 µM (inactive)
GI50 [5]: 2.71 µM (inactive)
GI50 [6]: 2.75 µM (inactive)
GI50 [7]: 1.91 µM (inactive)

CCOc1cccc2nc3cccc(C(=O)NCCN(C)C)c3nc12
GI50 [1]: 1.88 µM (inactive)
GI50 [2]: 0.116 µM (active)
GI50 [3]: 1.05 µM (active)
GI50 [8]: 2.6 µM (inactive)
GI50 [4]: 1.79 µM (inactive)
GI50 [9]: 3.94 µM (inactive)
GI50 [5]: 1.27 µM (inactive)
GI50 [6]: 0.582 µM (active)
GI50 [7]: 1.03 µM (active)

C=CCCC12CCCC(=O)C1Sc1ccc3ccccc3c12 (stereo unspecified)
GI50 [1]: 20.8 µM (inactive)
GI50 [3]: 22.4 µM (inactive)
GI50 [8]: 11.6 µM (inactive)
GI50 [4]: 15.2 µM (inactive)
GI50 [9]: 19.7 µM (inactive)
GI50 [6]: 5.38 µM (inactive)

Cc1cccc2c1Oc1cc(Cl)ccc1C2NC(=O)CN(C)C (stereo unspecified)
GI50 [1]: 50.7 µM (inactive)
GI50 [3]: 58.3 µM (inactive)
GI50 [4]: 57.4 µM (inactive)
GI50 [5]: 20 µM (inactive)
GI50 [6]: 28.8 µM (inactive)
GI50 [7]: 34.9 µM (inactive)

CC(C)CCC[C@@H](C)[C@H]1CC[C@H]2[C@@H]3CC=C4CC(OCCCCN(O)CCCSC5OC(CO)C(O)C(O)C5O)CC[C@]4(C)[C@H]3CC[C@]12C (stereo partly specified)
GI50 [1]: 74.8 µM (inactive)
GI50 [2]: > 100 µM (inactive)
GI50 [3]: 56.4 µM (inactive)
GI50 [4]: 23 µM (inactive)
GI50 [5]: > 100 µM (inactive)
GI50 [6]: 32 µM (inactive)
GI50 [7]: 25.5 µM (inactive)

CN(C)c1nc(N(C)c2ccccc2)[s+]s1
GI50 [1]: > 100 µM (inactive)
GI50 [2]: 20 µM (inactive)
GI50 [3]: 92.3 µM (inactive)
GI50 [4]: 36.8 µM (inactive)
GI50 [9]: > 100 µM (inactive)
GI50 [5]: > 100 µM (inactive)
GI50 [6]: 47.2 µM (inactive)
GI50 [7]: 30.8 µM (inactive)

COC(=O)/C([Se]c1c(C)cc(C)cc1C)=C(/[Se]c1c(C)cc(C)cc1C)C(=O)OC
GI50 [1]: > 100 µM (inactive)
GI50 [3]: > 100 µM (inactive)
GI50 [8]: > 100 µM (inactive)
GI50 [4]: > 100 µM (inactive)
GI50 [9]: > 100 µM (inactive)
GI50 [5]: > 100 µM (inactive)
GI50 [6]: > 100 µM (inactive)
GI50 [7]: > 99.3 µM (inactive)

Cc1c(Cl)cccc1NC(=O)CC1C(=O)Nc2ccccc2S1(=O)=O (stereo unspecified)
GI50 [1]: 20.2 µM (inactive)
GI50 [2]: 15.2 µM (inactive)
GI50 [3]: 15.1 µM (inactive)
GI50 [4]: 15.3 µM (inactive)
GI50 [5]: 22.4 µM (inactive)
GI50 [6]: 7.69 µM (inactive)
GI50 [7]: 16.5 µM (inactive)

Cc1ccc([N+](=O)[O-])cc1NC(=O)C(=O)Cc1cc(=O)oc2cc(O)ccc12
GI50 [1]: > 100 µM (inactive)
GI50 [2]: > 100 µM (inactive)
GI50 [3]: > 100 µM (inactive)
GI50 [4]: 56.5 µM (inactive)
GI50 [9]: > 100 µM (inactive)
GI50 [5]: 63.7 µM (inactive)
GI50 [7]: 18.5 µM (inactive)

COc1cc2c(c(OC)c1OC)-c1ccc(SC)c(=O)cc1[C@@H](NC(=O)c1ccc(C#N)cc1)CC2
GI50 [1]: < 0.01 µM (active)
GI50 [2]: < 0.01 µM (active)
GI50 [3]: < 0.01 µM (active)
GI50 [4]: < 0.01 µM (active)
GI50 [5]: < 0.01 µM (active)
GI50 [6]: < 0.01 µM (active)
GI50 [7]: < 0.01 µM (active)

Ic1cc2c(cc1C1SCCCS1)OCO2
GI50 [1]: > 100 µM (inactive)
GI50 [3]: > 100 µM (inactive)
GI50 [8]: > 100 µM (inactive)
GI50 [4]: > 100 µM (inactive)
GI50 [9]: > 100 µM (inactive)
GI50 [5]: > 100 µM (inactive)
GI50 [6]: > 100 µM (inactive)
GI50 [7]: > 100 µM (inactive)

Cc1c2cnccc2c(C)c2c1c1ccccc1n2CCCN
GI50 [1]: 0.76 µM (active)
GI50 [2]: 0.713 µM (active)
GI50 [3]: 0.116 µM (active)
GI50 [9]: 0.492 µM (active)
GI50 [5]: 0.183 µM (active)
GI50 [6]: 0.133 µM (active)
GI50 [7]: 0.31 µM (active)

C/C=C(\C)c1cc(O)c(C)c2c1Oc1cc(O)c(Cl)c(C)c1C(=O)O2
GI50 [1]: 29.1 µM (inactive)
GI50 [3]: 17.4 µM (inactive)
GI50 [4]: 24.8 µM (inactive)
GI50 [9]: < 0.01 µM (active)
GI50 [5]: 20.7 µM (inactive)
GI50 [6]: 34.1 µM (inactive)
GI50 [7]: 29.6 µM (inactive)

CC(=O)OCCOCNC(=S)N/N=C/c1ccc2ccccc2n1
GI50 [1]: > 100 µM (inactive)
GI50 [2]: > 100 µM (inactive)
GI50 [3]: 54.1 µM (inactive)
GI50 [8]: 55.6 µM (inactive)
GI50 [4]: 33.3 µM (inactive)
GI50 [9]: 75.9 µM (inactive)
GI50 [5]: 19.5 µM (inactive)
GI50 [6]: 36.1 µM (inactive)
GI50 [7]: 22.6 µM (inactive)

O=C(CSc1nc(-c2ccccc2)c(-c2ccccc2)[nH]1)N/N=C/c1ccc([N+](=O)[O-])cc1
GI50 [1]: 21.2 µM (inactive)
GI50 [2]: 13.2 µM (inactive)
GI50 [3]: 18.1 µM (inactive)
GI50 [4]: 20.4 µM (inactive)
GI50 [5]: 8.87 µM (inactive)
GI50 [6]: 14.1 µM (inactive)
GI50 [7]: 18.5 µM (inactive)
